Data on one compound can be found in US6537577B1, “Method of prophylaxis for bovine mastitis” (Bio Medical Development Corporation, priority 2001, dated 2003).

Experiment [1] has as its system Staph. aureus ATCC 29740. The experiment can be described thus: Excised teat study, preliminary trial. Conditions: for colony count per plate: plates 1-2, count no. 1 and 2. The class given is cell-based, Staphylococcus aureus. The source says: To evaluate the microbicidal activity of the compositions of EXAMPLE 1 and EXAMPLE 2, basic excised teat models used for these experiments are based on providing procedures by Twomey, A, and M. A Arnold, National Dairy Lab. Report, Ruaburn Agric. Res. Center, Hamilton, New Zealand.
Excess skin and tissue were trimmed, teats were washed in a mild detergent and warm water, rinsed in water, dried, and dipped in 70% ethyl alcohol. Teats were placed in plastic bags in a glycerin and water solution, and subsequently frozen at −20° C. until further use. Frozen teats were thawed in warm water, rinsed in water, dried, and dipped in 70% ethyl alcohol, dried with paper towels, and suspended by metal clips from a glass rod.
The pathogen strain that was used for this study was Staph. aureus ATCC 29740. For preparation of Staph. aureus, five 6-ml tubes of trypticase soy broth (TSB) (Becton Dickinson, Cockeysville, Md.) were inoculated from a culture of Staph. aureus actively growing on trypticase soy agar (TSA) (Becton Dickinson) containing 5% bovine calf blood. These tubes were incubated for 5 to 7 hours at 37° C., and this culture was used to inoculate 250 ml of TSB, which was incubated on a gyratory shaker for 16 hours. After incubation, bacterial cells were pelleted by centrifugation at approximately 7000×g, washed twice in 0.1% proteose peptone (Difco Laboratories, Detroit, Mich.), and resuspended to approximately 200 ml in proteose peptone. Serial dilutions were prepared in proteose peptone, and 0.1 ml was plated on TSA. Plates, were incubated for 24 hours at 37° C. and colonies were counted to determine the microbial concentration of the stock suspension.
Challenge suspensions of Staph. aureus containing approximately 1×10^8 cfu/ml of each organism (diluted with pasteurized milk) were prepared and used for the excised teat trials. The quenching solution was letheen broth (Difco Laboratories) modified to contain 1% sodium thiosulfate (Sigma Chemical Co., St. Louis, Mo.).
Teats were dipped in a Staph. aereus bacterial suspension to a depth of 15 mm and allowed to drain for 5 minutes. Teats were then dipped into two coating formulations of EXAMPLE 1 and EXAMPLE 2, (Formula No. 3 and Formula No. 5, respectively) to a depth of approximately 30 mm and allowed to drain for 10 minutes. […] The coating was then removed from each teat using a sterile cotton swab by rolling the edge of the softened film using a downward motion toward the teat apex, placed in 5 ml of quencher in sterile blood dilution vials (Baxter Diagnostics, McGaw Park, Ill.), mixed by vortexing for 5 seconds, and after serial dilution, a 0.1-ml aliquot was plated onto TSA. The quenching solution (Bacto-Letheen Broth) was used to inactivate the chlorhexidine germicide and prevent further bacterial killing upon culture. Immediately after the dried coating products were removed from the teats, each teat was rinsed to a total volume of 5 ml of quencher, the rinse collected in sterile blood dilution vials (Baxter Diagnostics) separate from the peelings, mixed by vortexing for 5 seconds, and after serial dilution, a 0.1-ml aliquot was plated to determine the number of organisms remaining on the teat after removal of the coating.

Experiment [2] relates to Staph. aureus ATCC 29740. The experiment can be described thus: Excised teat study, Trial 1. The class given is cell-based, Staphylococcus aureus. Here is the method:
(§1) Teats were prepared as described earlier. The pathogen strains that were used for this study were Staph. aureus ATCC 29740 and Strep. Agalactiae ATCC 27956. A culture of Strep. Agalactiae was prepared by thawing a frozen vial of Strep. Agalactiae and plating on a TSA blood plate. After 24 hours incubation at 37° C., five 6-ml tubes of TSB were inoculated with approximately six colonies of Strep. Agalactiae each. These cultures were incubated at 37° C. for approximately 16 hours and then used to inoculate 250 ml of TSB. This culture was incubated on a gyratory shaker for approximately 5.5 hours. Serial dilutions were prepared in proteose peptone, and 0.1 ml was plated on TSA. Plates were incubated for 24 hours at 37° C. and colonies were counted to determine the microbial concentration of the stock suspension.
(§2) The dilution required to prepare a challenge inoculum of approximately 1×10^8 colony-forming units (cfu)/ml of Staph. aureus or Strep. […] Challenge suspensions of Staph. aureus and Strep. Agalactiae containing approximately 1×10^8 cfu/ml of each organism (diluted with pasteurized milk) were prepared and used for the excised teat trials. The quenching solution was letheen broth (Difco Laboratories) modified to contain 1% sodium thiosulfate (Sigma Chemical Co., St. Louis, Mo.).
(§3) Agalactiae, respectively. […] Teats were dipped in the bacterial challenge suspensions once to a depth of approximately 15 mm and allowed to drain for 5 minutes, then dipped with the test products to a depth of approximately 30 mm and drained for an additional 10 minutes. For the challenged, but undipped negative control teats, the drainage time was 15 minutes. […] This coating film peeling from each teat was placed in sterile blood dilution vials (Baxter Diagnostics). Remaining organisms on teat skin were then removed by rinsing each teat with approximately 5 ml of quencher expressed from a polyethylene wash bottle into the same vial containing the coating film peeling. Each vial was vortexed for 5 seconds before plating.
(§4) For all three trials, serial dilutions of peelings or rinses were made in 0.1% proteose peptone, and platinf was in 0.1-ml aliquots on Mannitol Salt agar (Becton Dickinson) for Staph. aureus and TKT/FC agar (Bccton Dickinson) with 0.3% thallium acetate (Sigma Chemical Co.) for Strep. Agalactiae. […] Plates were incubated for 24 hours at 37° C. and colonies were counted. The geometric mean count of the plates was determined, multiplied by […] to express the total volume of rinse, and then multiplied by the dilution factor to yield the total cfu per teat. In cases in which no organisms were recovered from a teat, the value of 0.01 was substituted fro zero in order statistically determine the mean cfu counts.
(§5) The same set of teats was used for each trial. […]

Experiment [3] deals with Strep. Agalactiae ATCC 27956. The experiment can be described thus: Excised teat study, Trial 2. The class given is cell-based, Streptococcus agalactiae. Here is the method: as §1, §2, §3, §4, §5
The mark [4] stands for this setting: log of total organisms recovered.
[5] abbreviates: of plate counts at the treatment's dilution.
Where [6] appears, read: peeling and rinse combined, total cfu per teat.

Where “and” joins values, the source holds several entries; their conditions need not be identical. Equal entries are not always repeated.

As for `CC(=O)O` [2.5% acetic acid, acetic acid], the “Total organisms Recovered” value is given as 16,029,000 in the experiment with Staph. aureus ATCC 29740 [1], 4,620,500 in the experiment with Staph. aureus ATCC 29740 [2] (setting [6]) and 1,299,000 in experiment [3] (setting [6]). Further, the “colony count per plate” value in the experiment on Staph. aureus ATCC 29740 [1] (Dilution −3) is “TNTC^1 and TNTC”; with Staph. aureus ATCC 29740 [1] (Dilution −4), 327 and 268 and 460 and 262. The Log with Staph. aureus ATCC 29740 [1] (setting [4]) is listed as 7.20; in the experiment on Staph. aureus ATCC 29740 [2] (setting [4]), 6.66; in experiment [3] (setting [4]), 6.11. Besides, the “Geometric Mean” value in the experiment on Staph. aureus ATCC 29740 [1] (of plate counts, dilution −4) was 320.58^3; with Staph. aureus ATCC 29740 [2] (setting [5]) it was 92.41; in experiment [3] (setting [5]), 25.98. In addition, the figures for the Log reduction (in the experiment with Staph. aureus ATCC 29740 [1] (versus negative control); in the experiment on Staph. aureus ATCC 29740 [2] (versus negative control); in experiment [3] (versus negative control)) were 0.44, 0.76 and 0.93, respectively.
